From US5807742A, “Neurokinin receptor cell lines” (Merrell Pharmaceuticals Inc., priority 1996, dated 1998)
Starred links: 1 amine or outer side, 2 acyl side, 3 side chain; linkers in the order of their positions; H or OH if unused. Non-standard residues stand in square brackets, D forms with d. Residues, ends and D or L forms follow the SMILES beside them. NMeF = CN[C@@H](Cc1ccccc1)C(=O)O; Suc = O=C(CCC(=O)[*:2])[*:1]

Key:
neurokinin A receptor [1] = target: T1, neurokinin A receptor (Bos taurus, UniProt P05363); assay: [125I]NKA receptor binding (saturation/Scatchard and competition) in B82 cells transfected with pSKR56S cDNA (SKLKB82#n); set-up: species or system bovine; conditions: SKLKB82#3 cells; FIG. 4
T1 construct: expressed in transfected cells
T1 sequence (P05363 1-384): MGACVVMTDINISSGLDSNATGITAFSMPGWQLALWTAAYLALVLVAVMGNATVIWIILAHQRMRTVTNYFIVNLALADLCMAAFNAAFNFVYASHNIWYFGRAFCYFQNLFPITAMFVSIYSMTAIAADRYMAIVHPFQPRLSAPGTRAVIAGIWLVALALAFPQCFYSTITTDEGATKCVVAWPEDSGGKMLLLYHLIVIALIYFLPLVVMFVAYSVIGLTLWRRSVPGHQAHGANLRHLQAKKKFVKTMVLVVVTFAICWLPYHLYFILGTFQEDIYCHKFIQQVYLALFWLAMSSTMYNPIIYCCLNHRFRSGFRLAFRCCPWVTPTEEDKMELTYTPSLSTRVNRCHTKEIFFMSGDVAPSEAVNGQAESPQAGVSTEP
Protocol: (§1) The homogenate is centrifuged at 48,000×g for 10 min at 4° C.

[2] = target: T2, NKA receptor (hamster urinary bladder) (Mesocricetus auratus, UniProt P51144); assay: [125I]NKA receptor binding in hamster urinary bladder membranes (standard control); conditions: FIG. 4
T2 construct: the hamster urinary bladder membranes were run as a standard control; from tissue; host or cells: hamster urinary bladder membranes
T2 sequence (P51144 1-384): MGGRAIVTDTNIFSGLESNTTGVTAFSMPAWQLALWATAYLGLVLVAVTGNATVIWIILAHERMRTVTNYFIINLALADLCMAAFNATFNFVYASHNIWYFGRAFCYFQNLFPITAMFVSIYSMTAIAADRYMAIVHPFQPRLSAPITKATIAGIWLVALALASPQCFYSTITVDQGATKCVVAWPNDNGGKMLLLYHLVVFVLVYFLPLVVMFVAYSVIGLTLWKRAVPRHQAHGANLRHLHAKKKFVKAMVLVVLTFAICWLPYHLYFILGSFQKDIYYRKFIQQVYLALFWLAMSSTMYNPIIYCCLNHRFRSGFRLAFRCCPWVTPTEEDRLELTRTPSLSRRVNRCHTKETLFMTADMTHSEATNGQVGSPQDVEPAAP
Protocol: as §1

neurokinin A receptor [3] = target: T1, neurokinin A receptor; assay: [3H]inositol-1-phosphate (IP1) accumulation in SKLKB82#3 cells; format: cell-based, bovine
Protocol: The culture was incubated for 22-24 hours under the same conditions. After this incubation, the cells were washed once with 1.0 ml of IMDM for ten minutes and incubated for ten minutes in 0.2 ml of incubation buffer (IMDM with 10 mM LiCl, 40 ug/ml bacitracin, 4 ug/ml leupeptin, and 4 ug/ml chymostatin). […] The reaction was terminated in 60 minutes by aspiring the media and adding 0.5 ml methanol. The cells were scraped from the wells and placed into chloroform resistant tubes. A second aliquot of 0.5 ml methanol was used to collect the remaining cells. The cell suspensions were mixed with 1.0 ml chloroform and 0.5 ml double distilled water to obtain a two phase separation. After centrifugation at 4200g for 10 minutes, 0.9 ml aliquots of the upper phase were added to 2.0 ml of distilled water and mixed. This mixture was passed through poly prep columns (Bio-Rad Laboratories, Richmond, Calif.) which consisted of 2.0 ml slurry of ten percent anion exchange resin in formate form (AG1-X8, 100-200 mesh, Bio-Rad Laboratories, Richmond, Calif.). The columns were washed three times with 5.0 ml of distilled water and two times with 5.0 ml of 5 mM sodium tetraborate/60 mM sodium formate (Baker, Phillipsburg, N.J.). […] The eluate was mixed with nine ml of Aquamix (West Chem., San Diego, Calif.) and the radioactivity was counted.

## CSCC[C@H](NC(=O)[C@H](CC(C)C)NC(=O)CNC(=O)[C@H](Cc1ccccc1)N(C)C(=O)[C@H](Cc1ccccc1)NC(=O)[C@H](CC(=O)O)NC(=O)CCC(=O)O)C(N)=O [senktide] (Suc-DF[NMeF]GLM-NH2)
Neurokinin A receptor [1]
  potency rank-order, inhibition of [125I]NKA receptor binding (KI): followed by Nle^10 NKA (4-10), substance P, and senktide
[2]
  potency rank-order, inhibition of [125I]NKA receptor binding (KI): followed by Nle^10 NKA (4-10), substance P, and senktide
Neurokinin A receptor [3]
  EC50: ~1.3 mM
